Laboratory results: US8592405B2, “Synergistic antimicrobial composition” (Dow Global Technologies LLC, priority 2009, dated 2013)
“And” between values parts separate entries of the source, which are not always exact repeats. Identical values can stand only once.

Tests used:
Assay type in all cases: cell-based
Aspergillus niger (An) = assay: Fungal efficacy testing, modified ASTM 5590 (12-well, dry paint film); settings: three weeks; for Total conc, ppm: total biocide in paint taken as minimum inhibitory concentration, 30 C; for % inhibition: at the Total conc
Protocol: (§1) Samples of white acrylic latex paint free of biocides were prepared in 50 ml aliquots. Each biocide was post added to give the necessary active ingredient concentration in the paint. The total biocides concentrations tested were 750, 1500, 2500 and 5000 ppm. After biocides addition, each sample was hand mixed for a minimum of 30 sec, followed by a 3 min run on the paint shaker (RED DEVIL). Each of the paint samples as well as a control sample (containing no biocide) were used to prepare films on black plastic-vinyl chloride/acetate copolymer panels (LENETA, Mahwah, N.J.) using a 3 mil bird bar applicator. The panels were thoroughly dried for 5 days avoiding direct exposure to sunlight. Square discs (15 mm^2) were cut out from each panel and were used as the substrate for fungal and algal efficacy tests. This sample size allowed for an agar border when the sample disc was placed into the well of the test plate.
(§2) The appropriate media (BOLD'S 3N for Chlorophytes, BG-11 for Cyanobacteria, and PDA for fungi) were used to support microbial growth. The test plates were maintained at room temp (25° C.-26° C.), in a cycled light-dark environment, for 3 weeks for algae. Plates for fungal challenge tests were maintained at 30C for three weeks. At the end of incubation period the samples were scored for percent area covered by visible microbial growth.
ASTM 5590 is a standard accelerated test method for determining resistance of various coatings (including paints) to fungal defacement. To accommodate for high-throughput screening, this method was scaled down from petri plates to 12-well plates. To set up the test, an agar plug was placed at the bottom of each well of the sterile 12-well plate. A single coupon was placed with a pair of sterile forceps at the center of the agar plug (on top) with the painted surface facing upwards. Each well was inoculated with 150 μl of organism (1×10^6 cfu/ml) making sure that the whole surface (paint film as well as the agar surrounding it) was evenly covered. The plates were incubated at 30° C. in presence of moisture, for a period of three weeks. The total percent area covered was evaluated and recorded at the end of each week after the 2nd week and recorded in increments of 5%. […]

[1] = system: Cp + To + Ta (Calotrix parientina, Trentepohlia odorata, Trentepohlia aurea); assay: Algal efficacy testing, modified ASTM 5589 (6-well, mixed inoculum, Example 4); settings: four weeks; for Total conc, ppm: Cp + To + Ta mixed inoculum, NE = no end point at the concentration tested; for % inhibition: Cp + To + Ta, at the Total conc
Protocol: (§3) A single or blend of biocides was post added into white acrylic latex paint free of biocides to give a maximum total active ingredient/s concentration tested. This paint was then diluted with a biocide free acrylic latex paint at concentrations range of 75 to 12.5% w/w to give desired concentrations for the testing. Depending on the type of biocide blends tested, the total biocides concentrations varies from 200 to 5000 ppm. After biocides addition or dilution each sample was hand mixed for at least a minute until uniformity is achieved. Each of the paint samples as well as a control sample (containing no biocide) were used to prepare films on black plastic-vinyl chloride/acetate copolymer panels (LENETA, Mahwah, N.J.) using a 3 mil bird bar applicator. The panels were thoroughly dried for at least 2 days avoiding direct exposure to sunlight. Square discs (0.5 inch^2, 13 mm^2) were cut out from each panel and were used as the substrate for fungal and algal efficacy tests. This sample size allowed for an agar border when the sample disc was placed into the well of the test plate. Each sample was tested in duplicate
as §2, with “for four” for “for 3”, “at 30 C” for “at 30C”, “for four” for “for three”, “of the” for “of”
(§4) ASTM 5589 is a standard accelerated test method for determining resistance of various coatings (including paints) to algal defacement. To accommodate for high-throughput screening, this method was scaled down from petri plates to 6-well plates. A single coupon was placed with a pair of sterile forceps at the center of the agar plug (on top) with the painted surface facing upwards. Algal inoculums were prepared by mixing equal concentrations (1×10^6 cfu/ml) and equal volumes (depending on number of samples to be inoculated) of like growing organisms. In this study, Gloeocapsa sp. and Oscillatoria sp. were a mix of cyanobacteria grown on BG-11 media. Chlorella sp., Chlorella kessleri, and Nostoc commune are unicellular chlorphytes that were mixed and grown on Bold media. Trentepohlia aurea, Trentepohlia odorata, and Calotrix parientina are filamentous algae that were mixed and grown on Bold media. Each well was inoculated with 400 μl of organism mixture (1×10^6 cfu/ml) making sure that the whole surface (paint film as well as the agar surrounding it) was evenly covered. The plates were incubated at room temp (25° C.-26° C.) with cyclic exposure to light (OTT-Lite model #OTL4012P, 40 Watt, 26 KLumen) and dark phases, for a period of four weeks. The total area covered was evaluated at the end of each week according to percent area covered in 5% increments. While rating the plates, notations were made for zones of inhibition.

[2] = system: Cs + Ck + Nc (Chlorella sp., Chlorella kessleri, Nostoc commune); assay: as above; settings: four weeks; for Total conc, ppm: Cs + Ck + Nc mixed inoculum, NE = no end point at the concentration tested; for % inhibition: Cs + Ck + Nc, at the Total conc
Protocol: as §3
as §2, with “for four” for “for 3”, “at 30 C” for “at 30C”, “for four” for “for three”, “of the” for “of”
as §4

[3] = system: Gs + Os (Gloeocapsa sp. + Oscillatoria sp.); assay: as above; settings: four weeks; for Total conc, ppm: Gs + Os mixed inoculum, NE = no end point at the concentration tested; for % inhibition: Gs + Os, at the Total conc
Protocol: as §3
as §2, with “for four” for “for 3”, “at 30 C” for “at 30C”, “for four” for “for three”, “of the” for “of”
as §4

Gleocapsa sp. (Gs) = assay: Algal efficacy testing, modified ASTM 5589 (12-well, dry paint film); settings: three weeks; for % inhibition: at the Total conc; for Total conc, ppm: total biocide in paint taken as minimum inhibitory concentration
Protocol: as §1, §2
ASTM 5589 is a standard accelerated test method for determining resistance of various coatings (including paints) to algal defacement. To accommodate for high-throughput screening, this method was scaled down from petri plates to 12-well plates. A single coupon was placed with a pair of sterile forceps at the center of the agar plug (on top) with the painted surface facing upwards. Each well was inoculated with 150 μl of organism (1×10^8 cfu/ml) making sure that the whole surface (paint film as well as the agar surrounding it) was evenly covered. The plates were incubated at room temp (25° C.-26° C.) with cyclic exposure to light (OTT-Lite model #OTL4012P, 40 Watt, 26 KLumen) and dark phases, for a period of three weeks. The total area covered was evaluated at the end of each week according to percent area covered in 5% increments. While rating the plates, notations were made for zones of inhibition.
The SI is calculated based on F. C. Kull et.

Compound	Total conc, ppm (Aspergillus niger (An))	Total conc, ppm [1]	% inhibition [1]	Total conc, ppm [2]	% inhibition [2]	Total conc, ppm [3]	% inhibition [3]	% inhibition (Gleocapsa sp. (Gs))	Total conc, ppm (Gleocapsa sp. (Gs))	% inhibition (Aspergillus niger (An))
CN(C)C(=O)Nc1cccc(C(F)(F)F)c1 [Fluometuron, 1,1-dimethyl-3-(α,α,α-trifluoro-m-tolyl)urea]	2500 ppm and 5000 ppm	1250 ppm	100%	1250 ppm	100%	312.5 ppm	100%			
CCCCCCCCn1sc(Cl)c(Cl)c1=O [DCOIT, 4,5-dichloro-2-n-octyl-4-isothiazolin-3-one]	5000 ppm	575 ppm	100%	575 ppm	100%	287.5 ppm	100%	77.5%	2500 ppm	75%
Cc1ccc(S(=O)(=O)C(I)I)cc1 [DIMTS, diiodomethyl-p-tolylsulfone]	750 ppm	1875 ppm	95%	1250 ppm	100%	1875 ppm	100%	80%	2500 ppm	75%
